Format in all cases: in vivo
For test [1], the system named is Phytophthora infestans PHYTIN. The following applies: curative 1 day, low volume 300 L/ha, tomato.
Test [2] concerns Phytophthora infestans (PHYTIN). The note with it: 1DP, tomato (rutgers), sprayed to runoff, rate 200 ppm.
For test [3], the system named is Septoria tritici SEPTTR. The test can be described thus: Curative low volume test, wheat leaf blotch. The following applies: curative 3 days, low volume 300 L/ha. The method, then:
Tomatoes and grapes were grown in a soil-less peat-based potting mixture (Metro-Mix 360) while wheat was propagated in a 50/50 mix of mineral soil and Metro-Mix 360.
The malonomicin sample (Compound I) used in the low volume foliar spray was prepared by dissolving the material in deionized water with the desired adjuvant concentration. (0.05 percent Spraymate X-77+0.05 percent PVA+0.1 percent ammonium sulfate+0.1 percent EDTA)
For low volume applications, compound was applied to plants at the spray volume of 300 L/ha using a track sprayer with an SS8003E spray nozzle and a spray pressure of 255 kPa with a boom height of 40 cm from test plants. For a control, the same mixture is sprayed without active ingredient (solvent control).
Curative tests (DC) were inoculated the designated day(s) prior to treatment application. Disease severity was assessed as the percentage of the total surface area of the sprayed leaves covered by disease. Percent disease control relative to the solvent control was then calculated. Phytotoxicity symptoms and severity, if present, were also recorded. Four replicate plants per treatment for low volume applications were used.
Wheat plants were inoculated using approximately 1×10^7 spores/mL. Distilled water was poured into inoculum plates and the spores were dislodged using a spatula. The spores and water were filtered through 2 layers of cheesecloth, and three drops of Tween 20 per 100 mL of solution were added as a wetter. Test plants were then placed in a walk-in dew room at 22° C., 99 percent RH for 24 hours, after which time the plants were sub-irrigated with Hoagland's solution for 30 minutes and then moved into a misting greenhouse system where they were lightly misted every 90 seconds for three days. When the three-day misting period was completed, the plants were moved to the dry area of the greenhouse and bottom-watered daily until disease was fully expressed on the solvent control (10-14 days in summer, 14-21 days in winter). During the fall and winter months, the addition of a cart hood was used post-dew room, until assessment, in order to enhance disease uniformity and expression.

Test [4] has as its system Venturia inaequalis (VENTIN). Description: Apple Scab one day protectant (1DP). The following applies: 0.1 percent Spraymate X77 + 0.1 percent ammonium sulfate.
The test system of test [5] is Puccinia recondita f. sp. tritici (PUCCRT). Description: Brown Rust of Wheat one day protectant (1DP). The note with it: wheat (Monon), sprayed to runoff, rate 200 ppm. The method, then: Final treatment volumes were obtained by adding 0.1 percent aqueous Ethomeen T25 or 0.1 percent aqueous Spraymate X77+0.1 percent wt./vol. ammonium sulfate^+. Brown Rust of Wheat (Puccinia recondita f. sp. tritici-PUCCRT) (1 DP) Wheat (cultivar Monon) was grown in plastic pots (6.2 cm×8.75 cm) containing 50 percent mineral soil, 50 percent Metro-Mix 360 (W.R Grace and Co.) until the seedlings were 10-20 cm tall. These plants were then sprayed to runoff with the test compound at a rate of 200 ppm. After 24 hours the test plants were inoculated by spraying with an aqueous spore suspension of Puccinia recondita f. sp. tritici (PUCCRT). The plants were then transferred to a dew chamber for 24 hours, then to the greenhouse until disease developed on the untreated control plants.

Read-outs that look alike come from different tables or passages of the source.

For `NC[C@@H]1NC(=O)C(C(=O)CC(NC(=O)[C@@H](N)CO)(C(=O)O)C(=O)O)=C1O` [Compound I, {[(2S)-2-amino-3-hydroxypropanoyl]amino}{2-[(5S)-5-(aminomethyl)-4-hydroxy-2-oxo-2,5-dihydro-1H-pyrrol-3-yl]-2-oxoethyl}malonic acid], the “PHYTIN 1DC percent disease control” value is reported as “− (− = 0-29 percent control of plant disease)” in test [1] (7.8 g ai/ha); “+ (+ = 30-74 percent control of plant disease)” in test [1] (15.6 g ai/ha); “+ (+ = 30-74 percent control of plant disease)” in test [1] (31.2 g ai/ha); “− (− = 0-29 percent control of plant disease)” in test [1] (62.5 g ai/ha); “+ (+ = 30-74 percent control of plant disease)” in test [1] (125 g ai/ha); “++ (++ = 75-100 percent control)” in test [1] (250 g ai/ha). The “PHYTIN percent control of plant disease” value in test [2] is “++ (++ = 75-100 percent control of plant disease)”. The “SEPTTR 3DC percent disease control” value in test [3] (7.8 g ai/ha), in test [3] (15.6 g ai/ha), in test [3] (31.2 g ai/ha), in test [3] (62.5 g ai/ha), in test [3] (125 g ai/ha) and in test [3] (250 g ai/ha) was “++ (++ = 75-100 percent control)” in each case. Besides, the figures for the “VENTIN percent control of plant disease” value in test [4] (50 ppm), in test [4] (100 ppm) and in test [4] (rate 200 ppm) were “++ (++ = 75-100 percent control of plant disease)”, “++ (++ = 75-100 percent control of plant disease)” and “+ (+ = 30-74 percent control of plant disease)”, respectively. Moreover, the “PUCCRT percent control of plant disease” value in test [5] is listed as “++ (++ = 75-100 percent control of plant disease)”.

The values are drawn from patent US20070173539A1, “Use of malonomicin and analogs in fungicidal applications” (priority 2006, published 2007).
